Results published in ChEMBL document CHEMBL4842364 (J Med Chem, 2021).
Activity calls are given as the source filed them. The rule behind the calls is not given here.

Experiments:
[1] = tested on: NCI-H23; experiment: Antiproliferative activity against human NCI-H23 cells assessed as reduction in cell viability after 4 days by CellTiter-Glo assay
[2] = biological target: Wee1-like protein kinase (Homo sapiens, UniProt P30291)
Description: Displacement of Alexa Fluor labelled kinase tracer178 from WEE1 (unknown origin) incubated for 60 mins by FRET assay

[3] = Octanol/buffer distribution coefficient, logD of the compound at pH 7.4; format: physicochemical
[4] = Intrinsic clearance in human microsomes; format: ADME, Microsome
[5] = Intrinsic clearance in mouse microsomes; format: ADME, Microsome
[6] = AUC(0 to 24 hrs) in mouse at 60 mg/kg, po; format: ADME, organism-based; parameters: time < 24 hr, route oral, dose 60 mg/kg; details: in vivo
[7] = AUC(0 to 24 hrs) in rat at 60 mg/kg, po; format: ADME, organism-based; parameters: time < 24 hr, route oral, dose 60 mg/kg; details: in vivo
[8] = tested on: A-427; experiment: Antitumor activity against human A-427 cells xenografted in SCID mouse assessed as reduction in tumor growth at 80 mg/kg, po administered once daily for 28 days and measured twice per weeks; format: functional, organism-based; details: time 28.0 day
[9] = AUC in mouse plasma at 80 mg/kg, po administered once daily for 28 days; format: ADME, organism-based; parameters: time 28 day, dose 80 mg/kg
[10] = tested on: A-427; experiment: Antiproliferative activity against human A-427 cells assessed as reduction in cell viability after 3 days by CellTiter-Glo assay; format: functional, cell-based; details: A-427, 72 h
[11] = AUC(0 to 24 hrs) in mouse at 10 mg/kg, po; format: ADME, organism-based; parameters: time < 24 hr, route oral, dose 10 mg/kg; details: in vivo
[12] = Plasma protein binding in human; format: ADME, cell-free; details: read-out: PPB (converted)
[13] = Permeability of the compound across apical to basolateral side in human Caco-2 cells; format: ADME, cell-based; details: read-out: permeability
[14] = Permeability of the compound across basolateral to apical side in human Caco-2 cells; format: ADME, cell-based; details: read-out: permeability

Sequence of Wee1-like protein kinase (P30291 whole entry): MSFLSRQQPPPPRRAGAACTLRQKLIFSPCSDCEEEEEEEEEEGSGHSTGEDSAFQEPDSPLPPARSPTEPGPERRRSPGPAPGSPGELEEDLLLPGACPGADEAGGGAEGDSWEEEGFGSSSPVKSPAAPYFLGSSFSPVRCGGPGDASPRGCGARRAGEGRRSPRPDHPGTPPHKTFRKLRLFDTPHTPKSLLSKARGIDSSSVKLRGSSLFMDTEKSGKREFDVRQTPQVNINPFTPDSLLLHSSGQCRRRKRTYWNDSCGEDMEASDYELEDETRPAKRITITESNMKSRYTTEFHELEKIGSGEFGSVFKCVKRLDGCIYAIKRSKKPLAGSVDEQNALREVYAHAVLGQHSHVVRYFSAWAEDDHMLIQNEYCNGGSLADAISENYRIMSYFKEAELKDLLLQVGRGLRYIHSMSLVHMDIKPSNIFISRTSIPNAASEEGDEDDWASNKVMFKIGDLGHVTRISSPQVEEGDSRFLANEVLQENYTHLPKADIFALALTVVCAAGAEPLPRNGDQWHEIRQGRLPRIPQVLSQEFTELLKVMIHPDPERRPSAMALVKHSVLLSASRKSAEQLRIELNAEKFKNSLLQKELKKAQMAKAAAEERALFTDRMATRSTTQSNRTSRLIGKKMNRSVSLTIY

| SMILES | IC50 ([1]; Homo sapiens, NCI-H23, 96 h) | IC50 [2] | logD [3] | CLint scaled [4] | CLint scaled [5] | AUC(0-t) at 24 h [6] | further results |
| --- | --- | --- | --- | --- | --- | --- | --- |
| CC[C@@]1(O)CCc2ccc(-n3c4nc(Nc5ccc(N6CCN(C)CC6)cc5)ncc4c(=O)n3CC3CC3)nc21 | 3360 nM | 64 nM |  |  |  |  |  |
| C=CCn1c(=O)c2cnc(Nc3cccc(N4CCN(C)CC4)c3)nc2n1-c1ccc2c(n1)[C@@](O)(CC)CC2 | 277 nM | 3.2 nM | 2.6 | 135 mL/min/kg | 1110 mL/min/kg |  |  |
| C=CCn1c(=O)c2cnc(Nc3ccc(N4CCN(C)CC4)cc3)nc2n1-c1ccc2c(n1)[C@](C)(O)CCC2 | 177 nM | 3.7 nM | 2.6 | 18 mL/min/kg | 66 mL/min/kg | 54 µM·h | AUC(0-t) at 24 h [7]: 9.4 µM·h; Activity [8]: Active; AUC at 672 h [9]: 83 µM·h; IC50 [10]: 155 nM |
| C=CCn1c(=O)c2cnc(Nc3ccc4c(c3)CN(C)CC43CC3)nc2n1-c1cccc(C(C)(C)O)n1 |  |  | 3.1 |  | 1060 mL/min/kg |  | AUC(0-t) at 24 h [11]: 0.7 µM·h |
| C=CCn1c(=O)c2cnc(Nc3ccc4c(c3)CCN(C)C4)nc2n1-c1cccc(C(C)(C)O)n1 | 81 nM | 2.6 nM | 2.5 |  | 186 mL/min/kg | 9.6 µM·h |  |
| C=CCn1c(=O)c2cnc(Nc3ccc4c(c3)CN(CCO)CC4)nc2n1-c1cccc(C(C)(C)O)n1 | 274 nM | 2.5 nM | 2.2 |  | 307 mL/min/kg | 1.8 µM·h |  |
| C=CCn1c(=O)c2cnc(Nc3ccc(N4CCN(C)CC4)cc3)nc2n1-c1ccc2c(n1)C(O)(C(F)(F)F)CC2 (single isomer, unassigned) | 185 nM | 3.6 nM | 2.8 | 71 mL/min/kg | 126 mL/min/kg | 33 µM·h | AUC(0-t) at 24 h [7]: 37 µM·h |
| C=CCn1c(=O)c2cnc(Nc3ccc(N4CCN(C)CC4)c(C)c3)nc2n1-c1ccc2c(n1)[C@@](O)(CC)CC2 | 58 nM | 3.1 nM | 3 | 102 mL/min/kg | 191 mL/min/kg | 59 µM·h | AUC(0-t) at 24 h [7]: 43 µM·h |
| C=CCn1c(=O)c2cnc(Nc3ccc(N4CCN(C)CC4)cc3)nc2n1-c1ccc2c(n1)[C@@](O)(CC)CCC2 | 56 nM | 3.7 nM | 2.9 | 71 mL/min/kg | 126 mL/min/kg | 35 µM·h | AUC(0-t) at 24 h [7]: 24 µM·h |
| C=CCn1c(=O)c2cnc(Nc3ccc(N4CCN(C)CC4)cc3)nc2n1-c1cccc(C(C)(C)O)n1 [ADAVOSERTIB] | 122 nM |  | 2.2 | 34 mL/min/kg |  | 22 µM·h | fraction unbound [12]: 0.361; Papp A→B [13]: 3.4 ×10⁻⁶ cm/s; Papp B→A [14]: 42 ×10⁻⁶ cm/s; AUC ([11]; 24 h): 0.8 µM·h; Activity [8]: Active; AUC at 672 h [9]: 44 µM·h; IC50 [10]: 78 nM |
| C=CCn1c(=O)c2cnc(Nc3ccc4c(c3)CNCC4)nc2n1-c1cccc(C(C)(C)O)n1 | 105 nM |  | 1.3 |  | 170 mL/min/kg | 2.9 µM·h | AUC(0-t) at 24 h [11]: 0.2 µM·h |
| C=CC(F)(F)n1c(=O)c2cnc(Nc3ccc(N4CCN(C)CC4)cc3)nc2n1-c1ccc2c(n1)[C@@](O)(CC)CC2 | 4720 nM | > 100 nM |  |  |  |  |  |
| C=CCn1c(=O)c2cnc(Nc3ccc(N4CCN(C)CC4)cc3)nc2n1-c1ccc2c(n1)[C@@](O)(C(F)F)CC2 | 270 nM | 2.6 nM | 2.3 | 47 mL/min/kg | 108 mL/min/kg |  |  |
| C=CCn1c(=O)c2cnc(Nc3ccc(N4CCN(C)CC4)cc3)nc2n1-c1ccc2c(n1)C(O)CC2 (stereo in doubt; 9) |  | 4.3 nM |  |  |  |  | IC50 ([1]; nci-h23): 2520 nM |
| C=CCn1c(=O)c2cnc(Nc3ccc(N4CCN(C)CC4)cc3)nc2n1-c1ccc2c(n1)[C@@](N)(CC)CC2 | 26 nM | 3.2 nM | 1.4 | 26 mL/min/kg | 152 mL/min/kg | 3.9 µM·h |  |
